“Also recorded” adds a separate entry of the source. Non-standard residues stand in square brackets, D forms with d. No end group written: not given here.
Assays:
[1] = test system: antimycin-induced scratching; assay: Topical antimycin-induced scratching; format: in vivo, C57BL/6J mice; conditions: 100 μM topical with 200 μM antimycin
Method: However, antimycin-induced scratching in mice was […] by biotin-free HDAP2. Dermal administration of antimycin, a mitochondrial Complex III irreversible inhibitor, is known to induce ROS formation and oxidative stress in C fibers of sensory neurons, resulting in severe scratching in mice. Biotin-HDAP2 and biotin-free HDAP2 were tested to see if either can inhibit topical antimycin-induced itching in 12 months old C57BL/6J mice. […] Specifically, 200 μM of topical antimycin in methanol induced itching, which was monitored for 60 min. […] Error bars represent SEM (n=3) **P<0.001. Topical administration of 100 μM of biotin-free HDAP2 with antimycin increased scratching by 2.5 fold. Error bars represent SEM (n=3) ***P<0.0001.

MDBK cells = assay: Cell survival in serum-free media (AlamarBlue); format: cell-based, bovine; conditions: 1 μM, 5 days serum starvation
Method: Serum starvation experiments: Biotin-HDAP2's ability to improve cell viability and function following serum starvation was assessed. For all experiments, MDBK cells were seeded in 35 mm cell culture dishes (5×10^4 cells) in DMEM medium with 10% FBS (Fetal Bovine Serum) for 24 hrs and then incubated in serum-free medium with or without biotin-HDAP2 (1 μM) for 5 days to induce cell death. For quantitative measurements, wells were washed to remove dead cells, and then stained with AlamarBlue for 60 min. Quantitative analysis of dye conversion was measured using a fluorescent plate reader (550 ex/580 em) and cell viability was expressed as folds change (increase or decrease) over scrum-starved untreated cells.
Effects of peptides on cell survival in serum-free media: Cell survival in serum starvation conditions was studied in the presence and absence of biotin-HDAP2 using MDBK cells. Cells were plated at a density of 1-2×10^5 cells/well in 96 well plates in DMEM/10% FBS media. The following day, cells were washed and the medium replaced with DMEM serum-free media in the presence or absence of different concentrations of biotin-HDAP2 and incubated for 5 days. Cell viability was assessed using the Resaruzin (Alamar blue) indicator dye. Quantitative analysis of dye conversion was measured using a fluorescent plate reader (ex/em=550/580 nm) and viability was expressed as fold increase over of untreated cells.

ARPE-19 cells = assay: Mitochondrial potential in the presence of CCCP (TMRM); format: cell-based; conditions: 10 μM of CCCP
Method: Effects of peptides on mitochondrial potential in the presence of Carbonyl cyanide m-chlorophenylhydrazone (CCCP): ARPE-19 cells (ATTC-CRL-2302) (5×10^4 cells) were seeded in 35 mm glass dishes in DMEM/F12 medium with 10% FBS for 24 hr. On the day of the experiment, cells were cultured in DMEM/F12 in the presence of different concentrations of biotin-HDAP2 for 60 min (FIG. 17B). Then, cells were incubated with 10 μM CCCP in the presence of 5 nM TMRM, 100 nM Mito View Green, and 10 μg/ml Hoechst 33342 for 15 min at 37° C. Fluorescent images were immediately obtained with a Nikon Eclipse 50i fluorescence microscope (60× objective) using FITC (Mito View Green), Texas Red (TMRM), and DAPI (Hoechst) filters. Images were collected from three independent experiments, using 4-6 random fields for each treatment group, and imaged and analyzed as described for NR.

## [dR]FF[dR] [biotin-free HDAP2]
[1]
  increase of scratching: 2.5 fold
[1]; 60 min
  effect on antimycin-induced scratching: potentiated
MDBK cells
  AlamarBlue fluorescence / protection during serum starvation: did not increase AlamarBlue fluorescence; also recorded: does not protect cells during serum starvation

## N#CC(C#N)=NNc1cccc(Cl)c1 [CCCP, carbonyl cyanide m-chlorophenylhydrazone, reference compound]
ARPE-19 cells
  ΔΨm relative to control cells: 20%

Reference: patent publication US20250276996A1, “CATIONICALLY-ENFRAMED HIGH DENSITY AROMATIC PEPTIDES” (Research Foundation of the City University of New York, priority 2022, published 2025)
